Measured values as given in patent US20100004485A1, “GABAPENTIN ENACARBIL SALTS AND PROCESSES FOR THEIR PREPARATION” (priority 2008, published 2010).

How the values were obtained:
[1] = Solubility test in distilled water; type: physicochemical; conditions: for Solubility in water (class in words) / Solubility (g/ml water): distilled water; for Solubility (g/ml water): 100 mg sample
Description: Solubility was determined by placing 100 mg of sample material in a 50 ml glass beaker, adding 10 μL portions of distilled water and agitating until dissolved.

[2] = Hygroscopicity / water content at room conditions (TGA, FIG. 6); type: physicochemical; conditions: for Hygroscopicity: room conditions, GBPE-Ca compared to GBPE sodium salt
Description: Thermogravimetric Analysis (“TGA”) • TGA data obtained from TGA/DSC 1 of Mettler-Toledo or TA Instruments TGA 2959 • Heating range: 25-200 C; heating rate: 10° C./min, • Nitrogen flow 40 ml/min • Mass weight about 10 mg.

[3] = long period of storing
[4] = Thermogravimetric analysis (TGA): temperature at which thermal decomposition starts; type: physicochemical; conditions: 25-200 C, 10° C./min, nitrogen

| Structure (SMILES) | Solubility in water (class in words) [1] | Hygroscopicity [2] | Stability of form during storage [3] | Solubility (g/ml water) [1] [g/mL] | Water content when kept in room conditions ([2]; FIG. 6) | Temperature at which decomposition starts [4] [°C] | Solubility compared to GBPE sodium salt [1] |
| --- | --- | --- | --- | --- | --- | --- | --- |
| CC(OC(=O)NCC1(CC(=O)O)CCCCC1)OC(=O)C(C)C (stereo not drawn) [GBPE amorphous, 1-{[(α-isobutanoyloxyethoxy)carbonyl]-aminomethyl}-1-cyclohexane acetic acid, reference compound] | insoluble | – | – | – | – | – | – |
| CC(OC(=O)NCC1(CC(=O)[O-])CCCCC1)OC(=O)C(C)C.[Na+] (stereo not shown) [GBPE sodium salt, reference compound] | – | extremely hydrophilic | – | – | – | – | – |
| CC(OC(=O)NCC1(CC(=O)[O-])CCCCC1)OC(=O)C(C)C.CC(OC(=O)NCC1(CC(=O)[O-])CCCCC1)OC(=O)C(C)C.[Ba+2] (stereo not shown) [GBPE-Ba salt] | freely soluble (a compound having a solubility of about 0.1 to about 1 g/ml) | non-hygroscopic | stability over a long period of time | 0.125 | contained no water | 60 | – |
| CC(OC(=O)NCC1(CC(=O)[O-])CCCCC1)OC(=O)C(C)C.CC(OC(=O)NCC1(CC(=O)[O-])CCCCC1)OC(=O)C(C)C.[Ca+2] (stereo not shown) [GBPE-Ca salt] | sparingly soluble (a compound having a solubility of about 0.01 g/ml to about 0.03 g/ml) | less hygroscopic | – | 0.016 | – | 70 | less soluble |
| CC(OC(=O)NCC1(CC(=O)[O-])CCCCC1)OC(=O)C(C)C.CC(OC(=O)NCC1(CC(=O)[O-])CCCCC1)OC(=O)C(C)C.[Mg+2] (stereo not shown) [GBPE-Mg salt] | sparingly soluble (a compound having a solubility of about 0.01 g/ml to about 0.03 g/ml) | – | – | 0.020 | – | 70 | – |
